Test [1] has as its target T1, recombinant full length LRRK2 (Homo sapiens, UniProt Q5S007).
T1 construct: A BacMam virus expressing full length recombinant LRRK2 was purchased from Invitrogen; host or cells: SH-SY5Y human neuroblastoma cells transduced with BacMam LRRK2 virus (MOI 50)
Put plainly: Recombinant cellular LRRK2 AlphaScreen assay. It is filed as cell-based. The conditions noted are these: LRRK2 Ser935 phosphorylation, SH-SY5Y cells over-expressing recombinant full length LRRK2; read-out: pIC50 in the recombinant cellular LRRK2 AlphaScreen assay (converted). From the text: b. Recombinant Cellular LRRK2 AlphaScreen Assay
To determine the activity of compounds against LRRK2 kinase activity in cells, the observed LRRK2 kinase-dependent modulation of LRRK2 Ser 935 phosphorylation (Dzamko et al., 2010, Biochem. J. 430: 405-413) was utilized to develop a quantitative 384 well plate-based immunoassay of LRRK2 Ser935 phosphorylation in the human neuroblastoma cell line SH-SY5Y, engineered to over-express recombinant full length LRRK2 protein. A BacMam virus expressing full length recombinant LRRK2 was purchased from Invitrogen and amplified by inoculation of SF-9 cells at MOI 0.3 for 4-5 days in Sf-900 III SFM medium supplemented with 3% fetal bovine serum. Infected cell cultures were then centrifuged at 2000 g for 20 minutes, viral supernatant titer determined by anti-gp64 plaque assay and stored at 4° C. Affinity-purified anti-phospho LRRK2 Ser935 sheep polyclonal antibody (Dzamko et al., 2010, Biochem. J. 430: 405-413) was biotinylated by standard methods (PerkinElmer). Anti-LRRK2 rabbit polyclonal antibody was purchased from Novus Biologicals. AlphaScreen Protein A IgG Kit (including acceptor and donor beads) was purchased from Perkin Elmer. SH-SY5Y cells were grown in DMEM/F12 medium with 10% dialysed fetal bovine serum and harvested by treatment with 0.5% trypsin-EDTA for 5 minutes at 37° C. followed by centrifugation at 1000 rpm for 4 minutes. The cell pellet was resuspended in Opti-MEM reduced serum media (Invitrogen) at 200,000 cells/ml and mixed with the BacMam LRRK2 virus at MOI=50. 50 μl cell solutions were then dispensed to each well of a 384-well plate and incubated at 37° C., 5% CO2 for 24 hours. Serial dilutions of test compounds were prepared in Opti-MEM reduced serum media (Invitrogen) and 5.6 ul transferred from compound plate to cell assay plate to achieve a top final assay concentration of 10 uM. DMSO was used in certain wells as controls. Cells were incubated at 37° C., 5% CO2 for 60 minutes. The medium was then removed and cells lysed by addition of 20 ul cell lysis buffer (Cell Signaling Technology) and incubation at 4° C. for 20 minutes. 10 ul of antibody/acceptor bead mix [(1/1000 biotinylated-pS935 LRRK2 antibody, 1/1000 total-LRRK2 antibody, 1/100 Acceptor beads in AlphaScreen detection buffer (25 mM Hepes (pH 7.4), 0.5% Triton X-100, 1 mg/ml Dextran 500 and 0.1% BSA)] was then added to each well and plates incubated for 2 hours at ambient temperature in the dark. 10 μl of donor beads solution (1/33.3 donor beads in AlphaScreen detection buffer) was then added to each well. Following incubation for a further 2 hours at ambient temperature in the dark, plates were read on an EnVision™ plate reader at emission 520-620 nm with excitation 680 nm. Dose response curve data was based on sigmoidal dose-response model.
In general terms: Bead proximity is the source of the signal in Alpha formats.

Test [2] has as its target T2, Full length G2019 human LRRK2 (Homo sapiens, UniProt Q5S007).
T2 construct: purified recombinant Full length Flag-LRRK2 in assay buffer; made in house; host or cells: HEK293 6E cells transduced with BacMam virus (virus generated in Sf9 cells)
Put plainly: Full length G2019 human LRRK2 Inhibition Mass Spectrometry assay. The conditions noted are these: LRRKtide substrate, RapidFire mass spectrometry; read-out: pIC50 in the Full length G2019 human LRRK2 Inhibition Mass Spectrometry assay (converted). It is filed as biochemical. The method, then:
a. Full Length G2019 Human LRRK2 Inhibition Mass Spectrometry Assay
This assay for Leucine Rich Repeat Kinase 2 (LRRK2) inhibition is based on the direct measurement of the peptide ‘LRRKtide’ (LRRKtide: RLGRDKYKT*LRQIRQ and “*” refers to the site of phosphorylation.) and phosphorylated ‘LRRKtide’ using a high throughput RapidFire mass spectrometry assay. Inhibitors are compounds that reduce the conversion of LRRKtide to phospho-LRRKtide.
HEK293 6E cells were incubated in a 37° C. incubator with a humidified atmosphere of 5% CO2 on an orbital shaker rotating at 110 rpm. On the day of transduction, the cell viability was higher than 98% and the cell density was in the range of 1×10^6˜1.5×10^6 cells/ml. HEK293 6E cells were centrifuged at 1,000 rpm for 10 min, and then the cells were resuspended in fresh Freestyle 293 expression medium (Invitrogen:12338) with 0.1% F-68 (Invitrogen:24040-032) but without antibiotics (G418) at density of 1×10^6 cells/ml. BacMam virus with Flag-hu LRRK2 (genotypically normal) gene was centrifuged at 40,000 g for 2 hours, then resuspended in fresh Freestyle 293 expression medium. The resuspended virus was added into the cells in at MOI of 10. The cells were incubated in a 37° C. incubator with a humidified atmosphere of 5% CO2 in air on an orbital shaker rotating at 110 rpm. Cultures were harvested at approximately 48 hours post-transduction by centrifugation at 4,000 rpm for 20 min and pellets were frozen for purification.
The suspended cells were lysed by sonication on ice for 30 min (2 secs on/4 sec off, 20% amplitude), and centrifuged at 10,000 rpm for 30 minutes at 4° C. The supernatant was incubated with 1 mL per litre of cell culture of anti-Flag magnetic beads (Sigma-Aldrich: M8823) at 4° C. for 3 hours, then the beads were washed by 5 mL (5 column volume) binding buffer (50 mM Tris pH7.5@ 4C, 500 mM NaCl, 0.5 mM EDTA, 0.1% TritonX-100, 10% glycerol, freshly add 2 mM DTT) for three times. The Flag tagged LRRK2 proteins were eluted by Elution buffer (50 mM Tris pH7.5@ 4C, 500 mM NaCl, 0.5 mM EDTA, 0.1% TritonX-100, 10% glycerol, freshly add 2 mM DTT, 250 ug/ml Flag peptide (Sigma-Aldrich:F3290)) at 4° C. for 2 hours. Flag peptide was removed by Zeba Spin Desalting Columns, 7K MWCO (Thermo-Fisher: 89893) and the buffer of eluted LRRK2 proteins was exchanged into Storage Buffer (50 mM Tris pH7.5@4C, 150 mM NaCl, 0.5 mM EDTA, 0.02% Triton X-100, 2 mM DTT and 50% Glycerol) using Amicon Ultra Centrifugal Filter Units (100 kD) (Merck: UFC910096). Fractions containing LRRK2 proteins were pooled, aliquoted and stored at −80° C. Protein concentration was determined by Bradford protein assay, and protein purity was analyzed by NuPAG Novex 4-12% Bis-Tris Protein Gels (Invitrogen: NP0322BOX).
• 1) A 10 mM test compound was dissolved in 100% DMSO and serially diluted 1 in 4. 100 nL of this dilution series was then added to a 384 well, v bottom polypropylene plate, excluding columns 6 and 18. 100 nL of DMSO was added to columns 6 and 18 as controls wells. Assay dilution gave a top final assay concentration of test compound of 100 μM • 2) 50 μl of 1% formic acid in laboratory grade water was added to column 18 using a multidrop combi dispenser to act as a pre stopped assay control. • 3) 5 μl of ‘enzyme solution’ containing 50 nM of purified recombinant Full length Flag-LRRK2 in assay buffer (50 mM Hepes (pH 7.2), 10 mM MgCl2, 150 mM NaCl, 5% glycerol, 0.0025% triton X-100 and 1 mM DTT) was added to all wells using a multidrop combi dispenser, giving a final assay concentration of 25 nM LRRK2 enzyme. […] Test plates were then incubated for 30 minutes at room temperature. • 4) 5 μl ‘substrate solution’ containing 50 uM LRRKtide peptide substrate and 4 mM ATP was added to all wells of the plate using a multidrop combi dispenser giving a final assay concentration of 25 uM LRRKtide and 2 mM ATP. Test plates were then incubated for 1 hour at room temperature. […]

Structures are written as SMILES.

T1 sequence (Q5S007 whole entry): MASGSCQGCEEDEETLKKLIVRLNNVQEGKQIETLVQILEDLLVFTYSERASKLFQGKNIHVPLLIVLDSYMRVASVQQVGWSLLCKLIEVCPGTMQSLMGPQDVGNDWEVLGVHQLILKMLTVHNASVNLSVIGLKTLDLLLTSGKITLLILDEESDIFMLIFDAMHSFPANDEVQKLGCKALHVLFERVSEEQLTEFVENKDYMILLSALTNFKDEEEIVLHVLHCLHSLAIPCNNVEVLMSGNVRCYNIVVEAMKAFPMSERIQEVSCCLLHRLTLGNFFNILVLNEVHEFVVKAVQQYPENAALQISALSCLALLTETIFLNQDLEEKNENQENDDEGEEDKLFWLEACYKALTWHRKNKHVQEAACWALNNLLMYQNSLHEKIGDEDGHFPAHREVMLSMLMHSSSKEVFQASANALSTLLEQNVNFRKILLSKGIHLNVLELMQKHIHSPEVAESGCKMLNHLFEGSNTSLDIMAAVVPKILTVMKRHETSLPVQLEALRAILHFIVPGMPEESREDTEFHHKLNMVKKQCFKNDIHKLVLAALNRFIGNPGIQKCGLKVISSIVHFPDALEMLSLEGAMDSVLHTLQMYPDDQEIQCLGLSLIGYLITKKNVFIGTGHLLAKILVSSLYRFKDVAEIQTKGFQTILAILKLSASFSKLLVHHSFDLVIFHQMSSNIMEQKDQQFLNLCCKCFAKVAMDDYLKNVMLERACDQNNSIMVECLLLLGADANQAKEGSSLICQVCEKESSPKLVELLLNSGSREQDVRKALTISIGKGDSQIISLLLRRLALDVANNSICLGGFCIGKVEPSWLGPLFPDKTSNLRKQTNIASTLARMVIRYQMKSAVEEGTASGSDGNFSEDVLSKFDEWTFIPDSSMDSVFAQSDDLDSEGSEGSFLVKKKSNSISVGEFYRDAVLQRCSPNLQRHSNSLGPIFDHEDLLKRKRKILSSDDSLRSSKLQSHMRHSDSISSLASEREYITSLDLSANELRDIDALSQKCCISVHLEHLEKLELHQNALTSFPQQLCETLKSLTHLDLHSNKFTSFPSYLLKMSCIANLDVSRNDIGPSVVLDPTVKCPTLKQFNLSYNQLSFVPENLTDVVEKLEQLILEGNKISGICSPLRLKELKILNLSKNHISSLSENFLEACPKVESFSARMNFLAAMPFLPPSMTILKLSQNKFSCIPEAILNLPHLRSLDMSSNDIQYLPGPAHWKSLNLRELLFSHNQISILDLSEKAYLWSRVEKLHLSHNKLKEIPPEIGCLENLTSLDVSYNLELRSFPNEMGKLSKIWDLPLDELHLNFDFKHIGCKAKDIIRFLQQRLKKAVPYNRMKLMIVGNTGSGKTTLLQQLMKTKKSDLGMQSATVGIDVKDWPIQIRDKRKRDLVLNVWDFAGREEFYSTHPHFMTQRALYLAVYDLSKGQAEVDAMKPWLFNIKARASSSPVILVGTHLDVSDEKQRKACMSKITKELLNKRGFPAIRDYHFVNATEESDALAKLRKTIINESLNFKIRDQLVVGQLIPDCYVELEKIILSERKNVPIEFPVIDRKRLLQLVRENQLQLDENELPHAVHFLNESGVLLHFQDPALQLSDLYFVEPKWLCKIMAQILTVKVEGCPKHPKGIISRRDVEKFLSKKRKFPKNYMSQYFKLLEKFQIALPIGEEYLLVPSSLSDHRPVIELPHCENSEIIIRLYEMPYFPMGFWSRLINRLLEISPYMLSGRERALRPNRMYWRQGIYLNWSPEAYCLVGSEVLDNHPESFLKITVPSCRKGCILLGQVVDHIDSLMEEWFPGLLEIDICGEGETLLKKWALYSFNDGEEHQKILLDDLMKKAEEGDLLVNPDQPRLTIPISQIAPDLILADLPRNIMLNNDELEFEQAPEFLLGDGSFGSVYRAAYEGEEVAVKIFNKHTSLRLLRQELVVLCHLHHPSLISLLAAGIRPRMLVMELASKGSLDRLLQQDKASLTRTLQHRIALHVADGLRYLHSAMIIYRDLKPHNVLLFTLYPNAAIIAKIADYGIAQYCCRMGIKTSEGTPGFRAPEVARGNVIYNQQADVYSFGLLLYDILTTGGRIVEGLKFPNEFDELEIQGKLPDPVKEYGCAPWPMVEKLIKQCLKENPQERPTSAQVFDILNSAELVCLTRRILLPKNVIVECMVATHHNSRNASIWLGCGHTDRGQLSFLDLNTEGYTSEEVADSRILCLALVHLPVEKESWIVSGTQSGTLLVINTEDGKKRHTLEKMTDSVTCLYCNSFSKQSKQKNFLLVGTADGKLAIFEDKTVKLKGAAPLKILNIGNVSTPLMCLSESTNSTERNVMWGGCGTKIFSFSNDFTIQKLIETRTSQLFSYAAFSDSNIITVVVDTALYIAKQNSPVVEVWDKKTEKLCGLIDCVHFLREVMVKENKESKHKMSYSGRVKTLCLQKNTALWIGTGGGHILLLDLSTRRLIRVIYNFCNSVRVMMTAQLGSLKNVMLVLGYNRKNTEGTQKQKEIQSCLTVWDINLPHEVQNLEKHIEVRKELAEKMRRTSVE
T2 sequence (Q5S007 with tags, fused parts or gaps R50H): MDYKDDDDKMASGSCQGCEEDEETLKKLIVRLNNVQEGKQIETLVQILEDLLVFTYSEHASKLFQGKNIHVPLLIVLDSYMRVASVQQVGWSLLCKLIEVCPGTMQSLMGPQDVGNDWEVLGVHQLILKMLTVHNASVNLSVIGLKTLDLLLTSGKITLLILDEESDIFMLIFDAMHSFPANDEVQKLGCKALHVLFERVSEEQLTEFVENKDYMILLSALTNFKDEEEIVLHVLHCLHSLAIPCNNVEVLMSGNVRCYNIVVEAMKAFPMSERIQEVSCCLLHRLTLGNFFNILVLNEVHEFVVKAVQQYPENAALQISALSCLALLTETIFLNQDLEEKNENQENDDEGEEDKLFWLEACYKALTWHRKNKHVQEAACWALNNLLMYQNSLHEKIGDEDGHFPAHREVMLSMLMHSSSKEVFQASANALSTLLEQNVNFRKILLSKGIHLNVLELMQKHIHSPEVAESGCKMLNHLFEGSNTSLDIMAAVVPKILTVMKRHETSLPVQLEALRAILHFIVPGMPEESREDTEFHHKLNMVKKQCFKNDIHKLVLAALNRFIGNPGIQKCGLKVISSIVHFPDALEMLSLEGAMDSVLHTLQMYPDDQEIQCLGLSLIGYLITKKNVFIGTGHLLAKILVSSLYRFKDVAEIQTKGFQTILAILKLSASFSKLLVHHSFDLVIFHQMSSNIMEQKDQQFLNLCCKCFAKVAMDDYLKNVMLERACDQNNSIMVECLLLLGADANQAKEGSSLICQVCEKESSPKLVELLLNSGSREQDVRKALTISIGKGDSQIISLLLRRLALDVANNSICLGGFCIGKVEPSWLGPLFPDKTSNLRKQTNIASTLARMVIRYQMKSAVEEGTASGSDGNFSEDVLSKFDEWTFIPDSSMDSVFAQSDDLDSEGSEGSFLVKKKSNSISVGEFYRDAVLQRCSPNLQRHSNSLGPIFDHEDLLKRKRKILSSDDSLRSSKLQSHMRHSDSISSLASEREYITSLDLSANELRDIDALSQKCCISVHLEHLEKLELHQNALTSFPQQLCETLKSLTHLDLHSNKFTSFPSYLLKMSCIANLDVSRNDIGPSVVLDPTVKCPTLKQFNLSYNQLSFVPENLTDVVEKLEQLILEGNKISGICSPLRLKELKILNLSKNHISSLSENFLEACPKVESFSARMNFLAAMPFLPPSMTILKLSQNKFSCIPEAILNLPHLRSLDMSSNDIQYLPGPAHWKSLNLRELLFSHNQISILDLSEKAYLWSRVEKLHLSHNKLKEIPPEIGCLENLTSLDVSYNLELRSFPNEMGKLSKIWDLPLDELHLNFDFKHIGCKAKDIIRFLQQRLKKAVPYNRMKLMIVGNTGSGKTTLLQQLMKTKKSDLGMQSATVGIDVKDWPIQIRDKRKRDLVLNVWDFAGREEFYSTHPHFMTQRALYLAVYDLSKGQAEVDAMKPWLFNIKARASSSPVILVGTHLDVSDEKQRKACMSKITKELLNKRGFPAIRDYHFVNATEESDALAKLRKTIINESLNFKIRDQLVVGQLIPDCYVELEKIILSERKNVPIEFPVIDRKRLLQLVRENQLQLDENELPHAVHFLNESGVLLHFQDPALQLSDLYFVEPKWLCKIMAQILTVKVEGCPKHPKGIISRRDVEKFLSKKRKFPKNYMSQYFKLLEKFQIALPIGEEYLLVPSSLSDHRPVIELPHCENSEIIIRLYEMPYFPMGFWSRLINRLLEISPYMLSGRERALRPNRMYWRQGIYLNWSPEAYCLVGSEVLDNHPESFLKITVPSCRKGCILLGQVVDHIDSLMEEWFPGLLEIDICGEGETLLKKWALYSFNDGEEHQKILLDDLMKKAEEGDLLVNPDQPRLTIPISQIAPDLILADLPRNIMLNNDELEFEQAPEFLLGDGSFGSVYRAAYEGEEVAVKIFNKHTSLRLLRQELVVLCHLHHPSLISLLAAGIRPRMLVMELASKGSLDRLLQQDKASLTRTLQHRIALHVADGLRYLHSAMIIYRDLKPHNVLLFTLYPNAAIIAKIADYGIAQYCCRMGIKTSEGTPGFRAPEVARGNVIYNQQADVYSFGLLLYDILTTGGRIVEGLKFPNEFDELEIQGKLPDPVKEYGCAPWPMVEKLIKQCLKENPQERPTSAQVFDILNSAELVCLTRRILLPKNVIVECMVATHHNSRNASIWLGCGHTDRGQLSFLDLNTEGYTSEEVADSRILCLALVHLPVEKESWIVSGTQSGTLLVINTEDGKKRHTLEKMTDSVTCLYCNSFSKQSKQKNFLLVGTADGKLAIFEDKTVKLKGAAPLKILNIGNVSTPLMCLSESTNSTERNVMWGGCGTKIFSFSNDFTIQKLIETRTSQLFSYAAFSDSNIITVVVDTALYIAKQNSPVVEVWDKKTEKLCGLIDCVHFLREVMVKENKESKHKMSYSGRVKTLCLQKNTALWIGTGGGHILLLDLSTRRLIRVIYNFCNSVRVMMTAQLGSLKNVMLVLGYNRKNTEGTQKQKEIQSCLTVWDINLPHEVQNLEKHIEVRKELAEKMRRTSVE

On to `Cc1nc(N2CCOC[C@@H]2CO)cc(-n2ncc3cc(C)c(C4CCN(C5CCOC5)CC4)cc32)n1` (single isomer, unassigned) [Example E113], for which the IC50 in test [1] and in test [2] was at most 1000 nM in each case.

As to `COc1nc(N2CCOCC2)cc(-n2ncc3cc(C)c(C4CCN(C5CCOC5)CC4F)cc32)n1` (single isomer, unassigned) [Example E115, Cis-4-(6-(6-(3-fluoro-1-(tetrahydrofuran-3-yl)-piperidin-4-yl)-5-methyl-1H-indazol-1-yl)-2-methoxypyrimidin-4-yl)morpholine], the IC50 in test [1] and in test [2] was at most 10 nM in each case.

As to `COc1nc(N2CCOCC2)cc(-n2ncc3cc(C)c(C4CCN(C5CCOC5)CC4F)cc32)n1` (single isomer, unassigned) [Example E116, Cis-4-(6-(6-(3-fluoro-1-(tetrahydrofuran-3-yl)-piperidin-4-yl)-5-methyl-1H-indazol-1-yl)-2-methoxypyrimidin-4-yl)morpholine], the IC50 in test [1] and in test [2] was at most 100 nM each time.

As for `COc1nc(N2CCO[C@@H](CO)C2)cc(-n2ncc3cc(C)c(C4CCN(C5CCOC5)CC4F)cc32)n1` (single isomer, unassigned) [Example E117], the IC50 in test [1] is at most 10 nM; in test [2] it was at most 1000 nM.

`COc1nc(N2CCO[C@@H](CO)C2)cc(-n2ncc3cc(C)c(C4CCN(C5CCOC5)CC4F)cc32)n1` (single isomer, unassigned) [Example E118]: the IC50 in test [1] and in test [2] was at most 10 nM in each case.

On to `COc1nc(N2CCO[C@@H](CO)C2)cc(-n2ncc3cc(C)c(C4CCN(C5CCOC5)CC4F)cc32)n1` (single isomer, unassigned) [Example E119], for which the IC50 in test [1] and in test [2] was at most 100 nM each time.

Regarding `COc1nc(N2CCO[C@@H](CO)C2)cc(-n2ncc3cc(C)c(C4CCN(C5CCOC5)CC4F)cc32)n1` (single isomer, unassigned) [Example E120], the IC50 in test [1] and in test [2] was at most 10 nM in each case.

On to `COc1nc(N2CCO[C@H](CO)C2)cc(-n2ncc3cc(C)c(C4CCN(C5CCOC5)CC4F)cc32)n1` (single isomer, unassigned) [Example E124], for which the IC50 in test [1] and in test [2] was at most 100 nM throughout.

In the case of `COc1nc(N2CCOCC2)cc(-n2ncc3cc(C)c(C4CCN(C5CCOC5)CC4F)cc32)n1` (single isomer, unassigned) [Example E125, 4-(6-(6-(3-fluoro-1-(tetrahydrofuran-3-yl)-piperidin-4-yl)-5-methyl-1H-indazol-1-yl)-2-methoxypyrimidin-4-yl)morpholine], the IC50 in test [1] is at most 10 nM; in test [2] it was at most 1000 nM.

Consider `COc1nc(N2CCOCC2)cc(-n2ncc3cc(C)c(C4CCN(C5CCOC5)CC4F)cc32)n1` (single isomer, unassigned) [Example E126, 4-(6-(6-(3-fluoro-1-(tetrahydrofuran-3-yl)-piperidin-4-yl)-5-methyl-1H-indazol-1-yl)-2-methoxypyrimidin-4-yl)morpholine], for which the IC50 in test [1] and in test [2] was at most 100 nM each time.

Take `Cc1nc(N2CC(C)(O)C2)cc(-n2ncc3cc(Cl)c(C4CCN(C5CCOC5)CC4)cc32)n1` (single isomer, unassigned) [Example E128, 1-(6-(5-chloro-6-(1-(tetrahydrofuran-3-yl)piperidin-4-yl)-1H-indazol-1-yl)-2-methyl-pyrimidin-4-yl)-3-methylazetidin-3-ol]: the IC50 in test [1] and in test [2] was at most 1000 nM in each case.

Consider `Cc1nc(N2CCO[C@@H](CO)C2)cc(-n2ncc3cc(Cl)c(C4CCN(C5CCOC5)CC4)cc32)n1` (single isomer, unassigned) [Example E130], for which the IC50 in test [1] and in test [2] was at most 100 nM throughout.

`Cc1nc(N[C@H]2C[C@@H](O)C2)cc(-n2ncc3cc(C)c(C4CCN(C5CCOC5)CC4)cc32)n1` (single isomer, unassigned) [Example E133, Cis-3-((2-methyl-6-(5-methyl-6-(1-(tetrahydrofuran-3-yl)piperidin-4-yl)-1H-indazol-1-yl)pyrimidin-4-yl)amino)cyclobutanol]: the IC50 in test [1] and in test [2] was at most 1000 nM each time.

For `Cc1nc(N[C@H]2C[C@@H](O)C2)cc(-n2ncc3cc(C)c(C4CCN(C5CCOC5)CC4)cc32)n1` (single isomer, unassigned) [Example E134, Cis-3-((2-methyl-6-(5-methyl-6-(1-(tetrahydrofuran-3-yl)piperidin-4-yl)-1H-indazol-1-yl)pyrimidin-4-yl)amino)cyclobutanol], the IC50 in test [1] and in test [2] was at most 100 nM each time.

For the origin of these results see patent publication US20210130339A1, “COMPOUNDS” (GLAXOSMITHKLINE INTELLECTUAL PROPERTY DEVELOPMENT LIMITED, priority 2017, published 2021).
